Experiments:
[1] = target: T1, recombinant hMAO-B (Homo sapiens, UniProt P27338); assay: Time-dependent inhibition study on hMAO-B; format: biochemical; details: pre-incubation 0 to about 20 min, 5 and 20 µM
T1 construct: purchased Fluka-Sigma-Aldrich s.r.l; (Italy); host or cells: Baculovirus infected BT1 cells
T1 sequence (P27338 1-520): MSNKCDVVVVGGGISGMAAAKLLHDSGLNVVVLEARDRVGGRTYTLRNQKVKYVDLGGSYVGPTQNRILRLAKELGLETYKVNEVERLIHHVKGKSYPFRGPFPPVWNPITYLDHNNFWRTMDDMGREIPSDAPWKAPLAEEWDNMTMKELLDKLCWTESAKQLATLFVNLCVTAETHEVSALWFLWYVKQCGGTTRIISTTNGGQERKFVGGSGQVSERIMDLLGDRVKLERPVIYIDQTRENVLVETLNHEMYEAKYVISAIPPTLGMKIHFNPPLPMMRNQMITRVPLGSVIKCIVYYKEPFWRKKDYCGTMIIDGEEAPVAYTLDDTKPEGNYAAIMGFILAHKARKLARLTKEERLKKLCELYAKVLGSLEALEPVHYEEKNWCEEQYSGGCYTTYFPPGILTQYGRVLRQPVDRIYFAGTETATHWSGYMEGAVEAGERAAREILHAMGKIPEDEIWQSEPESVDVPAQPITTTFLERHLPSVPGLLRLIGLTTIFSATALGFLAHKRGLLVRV
Description: Time-dependent inhibition studies. The time-dependent inactivation by 2 was performed as previously reported. In detail, recombinant hMAO-B was pre-incubated in the K/Pi buffer for periods from 0 to about 20 min, at 37 °C in the absence (control sample) and in the presence of compound 2 (5 and 20 µM). After various pre-incubation times (at least 5 times after mixing of enzyme and inhibitor), the residual enzyme activity was determined: an aliquot of sample was withdrawn and diluted in the assay buffer (50-fold dilution) and then, the substrate was added under a “saturating” condition (Kyn = 300 µM).

melting point: 150 to 151 °C
SMILES: O=C(/C=C/c1ccc(O)c(O)c1)Oc1ccc(CC2SC(=O)NC2=O)cc1 (centres unmarked) [Compound 2, 4-((2,4-Dioxothiazolidin-5-yl)methyl)phenyl (E)-3-(3,4-Dihydroxyphenyl)acrylate]
time-dependent inhibition / inactivation of hMAO-B [1]: no inactivation and no time-dependent inhibition

Reference: paper PMC10650714, “Double Attack to Oxidative Stress in Neurodegenerative Disorders: MAO-B and Nrf2 as Elected Targets” (Molecules, 2023)
